Measurements reported in patent US12622915B2, “Methods of treating PDE IV-mediated diseases or conditions” (Vanda Pharmaceuticals Inc., priority 2020, dated 2026).

What was measured:
IMQ induced psoriasis = test system: IMQ induced psoriasis
Experimental: Test Item Details • 1. Dexamethasone Cat. or Batch no.: BCBM4557V (sigma) • Vehicle for dexamethasone (Veh.1): acetone:ethanol (1:1) • Dose: 0.1 mg/ear & 0.25 mg in back skin • Dose volume: 20 μL/ear & 50 μL on back skin • 2. Crisaborole: PZ0037 (Sigma) • Vehicle (Veh.1): acetone:ethanol (1:1) • Dose: 0.1 mg/ear & 0.25 mg in back skin • Dose volume: 20 μL/ear, 50 μL on back skin • 3. Compound of Formula (I) • Vehicle (Veh.1): acetone:ethanol (1:1) • Dose: 0.1 mg/ear & 0.25 mg in back skin • Dose volume: 20 μL/ear, 50 μL on back skin Dexamethasone and Test Item Preparation and Application: • Strength=5 mg/ml
Application=100 μg/20 pit per each ear+250 μg/50 μL on the back G2 to G4 receive Dexamethasone, Crisaborole or test item: Daily topical treatment (D0-D6): 0.1 mg in 20 μl per ear x both the ears+0.25 mg in 50 μl (on the back) 6-8 hrs after IMQ application.
Disease Induction: Application of 5% IMQ cream 40 mg (back) and 5 mg (per ear—Inner surface) daily from day 0-6.
Treatment: 0.5% Dexamethasone solution: 0.25 mg (back) and 0.1 mg (per ear) 8 hrs post IMQ. • Day −2—Depilation on back region • Day 0—Observations (Body weight; ear thickness using digital microcaliper) • Day 2—Observations (Body weight; ear thickness using digital microcaliper) • Day 4—Observations (Body weight; ear thickness using digital microcaliper) • Day 6—Observations (Body weight; ear thickness using digital microcaliper); Blood collection (PK) and Termination {2 hrs after last dose) • Ear collection: PK, Cytokine, MPO, Thickness • Back skin collection, scoring and thickness measurement • Histopathology (optional)
The dorsal posterior area (2 cm×2 cm) of animals is depilated using a hair trimmer. 5% Imiquimod cream: 50 mg/animal (40 mg on the shaved back+5 mg each on the inner part of right and left ear) QD is applied on days 0 to 5 (Groups 1-4).
The body weight is recorded individually for all animals at receipt, day of randomization, prior to treatment, and once in two days thereafter. The animals are observed for mortality at regular intervals.
2 hrs post compound treatment on day 6, all the animals are euthanized, and ear tissues are collected. The right ear is flash frozen in liquid nitrogen and stored at −80° C. until homogenization for MPO and cytokine estimation.
The half of the left ear is used for drug concentration measurement. The other half of the left ear tissue is used for histopathology. The back skin is collected for visual assessment (scoring) and histopathology.
MPO analysis: Snap frozen ear tissue samples are homogenized in 1× assay buffer provided in the kit. The homogenates are centrifuged at 8000 g for 10 minutes in a refrigerated centrifuge. The supernatants are discarded, and the pellet is resuspended in solubilisation buffer (1× assay buffer containing 0.5% HTABr). The samples are homogenized and subjected to three rounds of freeze thaw followed by brief sonication for 10s. The samples are centrifuged at 12,000 g for 10 minutes in a refrigerated centrifuge and the resulting supernatants are analysed for MPO levels based on a fluorometric detection kit. The Kit utilizes a non-fluorescent detection reagent, which is oxidized in the presence of hydrogen peroxide and MPO to produce its fluorescent analogue. (Enzo Life Sciences; ADI-907-029).
Histopathology: At study termination, posterior dorsal skin and ear skin samples are collected. Skin samples are processed using routine histopathological methods and 4-5 μm paraffin sections are prepared. Tissue sections (3 serial sections/animal) are stained with Hematoxylin and eosin (H&E) to evaluate acanthosis, hyper/parakeratosis and inflammatory cellular infiltration in dermis. Severity of lesions are assessed semi quantitatively on a scale of 0-4 by two independent pathologists (0—normal, 1—mild degree, 2—moderate degree, 3—severe degree and 4—extensive or multiple locations) for each parameter in a blinded manner.

Phosphodiesterase PDE8A1 = molecular target: T1, Phosphodiesterase PDE8A1 (Homo sapiens, UniProt O60658); assay: Phosphodiesterase PDE8A1 enzyme assay; format: biochemical; details: N=2, Example 3
T1 construct: host or cells: insect Sf9 cells
T1 sequence (O60658 whole entry): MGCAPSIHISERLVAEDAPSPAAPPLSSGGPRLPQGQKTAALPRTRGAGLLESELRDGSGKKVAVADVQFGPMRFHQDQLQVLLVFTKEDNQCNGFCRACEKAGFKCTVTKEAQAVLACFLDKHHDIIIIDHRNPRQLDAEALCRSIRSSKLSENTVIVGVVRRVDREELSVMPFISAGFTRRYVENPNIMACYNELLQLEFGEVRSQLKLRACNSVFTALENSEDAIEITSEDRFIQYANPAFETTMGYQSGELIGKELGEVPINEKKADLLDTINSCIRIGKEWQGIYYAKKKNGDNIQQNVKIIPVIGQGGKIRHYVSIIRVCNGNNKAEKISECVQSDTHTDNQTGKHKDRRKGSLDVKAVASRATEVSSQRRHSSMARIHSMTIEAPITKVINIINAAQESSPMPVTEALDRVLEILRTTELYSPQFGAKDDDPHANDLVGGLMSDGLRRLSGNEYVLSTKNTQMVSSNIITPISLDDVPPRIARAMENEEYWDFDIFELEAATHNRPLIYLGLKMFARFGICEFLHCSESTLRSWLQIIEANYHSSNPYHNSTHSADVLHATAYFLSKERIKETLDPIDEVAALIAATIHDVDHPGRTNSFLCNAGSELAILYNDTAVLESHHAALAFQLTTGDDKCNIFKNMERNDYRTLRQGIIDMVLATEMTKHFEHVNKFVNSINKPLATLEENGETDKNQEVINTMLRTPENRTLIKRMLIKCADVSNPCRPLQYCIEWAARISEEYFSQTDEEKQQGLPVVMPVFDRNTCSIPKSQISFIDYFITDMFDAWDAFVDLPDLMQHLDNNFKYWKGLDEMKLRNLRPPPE
From the text: (§1) Reference standards are run as an integral part of each assay to ensure the validity of the results obtained. Reference Compounds: • Phosphodiesterase PDE10A2 Papaverine • Phosphodiesterase PDE11A4 Dipyridamole • Phosphodiesterase PDE1A MMPX • Phosphodiesterase PDE2A EHNA • Phosphodiesterase PDE3A Cilostamide • Phosphodiesterase PDE4A1A Rolipram • Phosphodiesterase PDE4B1 Rolipram • Phosphodiesterase PDE5A Zaprinast • Phosphodiesterase PDE6 Zaprinast • Phosphodiesterase PDE7A IBMX • Phosphodiesterase PDE7B IBMX • Phosphodiesterase PDE8A1 Dipyridamole • Phosphodiesterase PDE9A2 Zaprinast
(§2) Phosphodiesterase PDE4A1A; Phosphodiesterase PDE4B1; Phosphodiesterase PDE10A2; Phosphodiesterase PDE11A4; Phosphodiesterase PDE2A; Phosphodiesterase PDE3A; Phosphodiesterase PDE7A; Phosphodiesterase PDE7B; and Phosphodiesterase PDE8A1: • Source: Human recombinant insect Sf9 cells • Substrate: 0.10 μM FAM-cAMP • Vehicle: 1.00% DMSO • Significance Crit.: ≥50% of max stimulation or inhibition • Incubation Buffer: 10 mM Tris-HCl, pH 7.2, 10 mM MgCl2, 0.05% NaN3, 0.1% phosphate-free BSA • Quantitation Method: Quantitation of Fluorescein-AMP-IMAP • Pre-Incub. Time/Temp: 15 minutes @25° C. • Incubation Time/Temp: 30 minutes @25° C.
(§3) IC50 values are determined by a non-linear, least squares regression analysis using MathIQ™ (ID Business Solutions Ltd., UK). […]

[1] = molecular target: T2, Phosphodiesterase PDE10A2 (Homo sapiens, UniProt Q9Y233); assay: Phosphodiesterase PDE10A2 enzyme assay; format: biochemical; details: N=2, Example 3
T2 construct: host or cells: insect Sf9 cells
T2 sequence (Q9Y233 267-1055): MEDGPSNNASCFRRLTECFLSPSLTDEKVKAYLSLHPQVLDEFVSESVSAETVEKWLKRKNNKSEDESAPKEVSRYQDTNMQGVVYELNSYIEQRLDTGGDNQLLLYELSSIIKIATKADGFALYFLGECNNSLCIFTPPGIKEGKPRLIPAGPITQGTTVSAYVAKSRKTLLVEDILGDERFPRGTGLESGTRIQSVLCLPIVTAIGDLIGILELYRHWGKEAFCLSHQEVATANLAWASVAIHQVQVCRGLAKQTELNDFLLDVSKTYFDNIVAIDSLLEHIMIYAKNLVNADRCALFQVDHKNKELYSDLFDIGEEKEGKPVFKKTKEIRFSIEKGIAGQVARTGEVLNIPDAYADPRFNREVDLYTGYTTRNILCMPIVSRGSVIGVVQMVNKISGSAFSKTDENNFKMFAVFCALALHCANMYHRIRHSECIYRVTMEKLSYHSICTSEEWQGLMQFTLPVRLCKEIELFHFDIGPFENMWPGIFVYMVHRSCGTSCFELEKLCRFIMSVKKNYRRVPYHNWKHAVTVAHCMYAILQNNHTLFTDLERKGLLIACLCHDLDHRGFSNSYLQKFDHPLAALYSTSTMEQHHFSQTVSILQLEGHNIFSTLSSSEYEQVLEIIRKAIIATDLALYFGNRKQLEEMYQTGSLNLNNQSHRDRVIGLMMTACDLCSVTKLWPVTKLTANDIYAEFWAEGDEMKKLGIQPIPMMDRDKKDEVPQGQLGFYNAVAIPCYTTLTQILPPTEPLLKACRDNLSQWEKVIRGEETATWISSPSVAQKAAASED
From the text: as §1, §2, §3

[2] = topical 0.5%, ear skin, vs IMQ control
[3] = topical 0.5%, maximum score 16, vs IMQ control

inhibition at 10 µM (Phosphodiesterase PDE8A1): 0%
inhibition at 10 µM [1]: 11%
SMILES: CNc1nc(Nc2ccccc2)nc(OCC(F)(F)C(F)F)n1 [compound of Formula (I), N^2-methyl-N^4-phenyl-6-(2,2,3,3-tetrafluoropropoxy)-1,3,5-triazine-2,4-diamine]
MPO activity in ear tissue homogenates (IMQ induced psoriasis; day 6, topical 0.5%, vs IMQ control): do not show significant inhibition
Back skin thickness (IMQ induced psoriasis; day 6 at termination, topical 0.5%, vs IMQ control): do not show significant reduction
Body weight / body weight loss (IMQ induced psoriasis; mouse, in vivo): significantly less
Cumulative clinical scores (erythema, skin thickness, scales) (IMQ induced psoriasis; topical 0.5%, back skin, maximum score 12, vs IMQ control): does not show any significant reduction
Extent of acanthosis, back skin (histopathology) (IMQ induced psoriasis; topical 0.5%, back skin, vs IMQ control): reduction
Ear thickness (IMQ induced psoriasis; topical 0.5%, daily, vs IMQ control): significant reduction in ear thickness on day 6
Cellular infiltration, ear (histopathology) (IMQ induced psoriasis; [2]): significant reduction
Extent of acanthosis, ear (histopathology) (IMQ induced psoriasis; [2]): significant reduction
Cumulative HP score of back skin (IMQ induced psoriasis; [3]): significant reduction
Overall cumulative HP scores of ear skin (IMQ induced psoriasis; [3]): significant reduction
Spleen weight or normalized spleen weight (IMQ induced psoriasis; topical 0.5%, vs IMQ control): do not show significant reduction
Cytokine levels in ear tissue homogenates (IMQ induced psoriasis; topical treatment, vs IMQ control): significant reduction in few of the proinflammatory cytokines
